Measurements from patent US10894040B2, “S1P modulating agents” (BIOGEN MA INC., priority 2011, dated 2021).
pEC50: −log10 of the molar value.

Test system: A2B5+ OPCs
Experiment: OPC differentiation assay
Format: cell-based, Sprague Dawley rats
Conditions: 3-day incubation; for activity in the OPC assay at 2 micromolar / activity in the OPC assay at 20 micromolar: symbols not defined in the patent; for pEC50: Rattus norvegicus, 72 h, MSD analysis
Description: OPC Differentiation Assay
Enriched populations of oligodendrocytes were grown from post-natal day 2 (P2) female Sprague Dawley rats. The forebrain was dissected out and placed in Hank's buffered saline solution (HBSS; Invitrogen, Grand Island, N.Y.). The tissue was cut into 1 mm fragments and incubated at 37° C. for 15 minutes in 0.01% trypsin and 10 μg/mL DNase. Dissociated cells were plated on poly-L-lysine-coated T75 tissue culture flasks and grown at 37° C. for 10 days in Dulbecco's modified Eagle's medium (DMEM) with 20% fetal calf serum (Invitrogen). A2B5^+ OPCs were collected by shaking the flask overnight at 200 rpm and 37° C., resulting in a 95% pure population.
For the differentiation assay, 2 μM and 20 μM antagonist or the same concentrations of vehicle (DMSO) were applied to OPCs cultured in CNTF/T3 containing media. After a 3-day incubation, […], cell were lysed and then subjected to MSD (Meso Scale Discovery-R) analysis. EC50 was calculated by Prism using a nonlinear sigmoidal dose-response curvecells. Alternatively, cells were lysed in 80 μL lysis buffer (50 mM HEPES [4-(2-hydroxyethyl)-1-piperazineethanesulfonic acid], pH 7.5, 150 mM NaCl, 1.5 mM MgCl2, 1 mM ethylene glycol tetraacetic acid [EGTA], 1% Triton X-100 and 10% glycerol) for 30 minutes at 4° C. After centrifugation at 14,000 g for 15 minutes, the supernatants were boiled in Laemmli sample buffer, subjected to 4-20% SDS-PAGE, and analyzed by Western blotting with anti-MBP, anti-myelin-associated glycoprotein (MAG), or anti-beta actin antibodies. The secondary antibodies used were anti-mouse IgG-HRP (horseradish peroxidase) and anti-rabbit IgG-HRP respectively.

Row | pEC50 | SMILES | activity in the OPC assay at 2 micromolar | activity in the OPC assay at 20 micromolar
1 | > 5.00 | CC1(C(=O)O)CCN(Cc2ccc3cc(O[C@H]4CC[C@H](C(C)(C)C)CC4)ccc3c2)CC1 [Example 77, 1-((6-(trans-4-tert-Butylcyclohexyloxy)naphthalen-2-yl)methyl)-4-methylpiperidine-4-carboxylic acid] | + to ++++ | + to ++++
2 |  | CCC1(C(=O)O)CCN(Cc2ccc3cc(O[C@H]4CC[C@H](C(C)(C)C)CC4)ccc3c2)CC1 [Example 56, 1-[6-(4-tert-Butyl-cyclohexyloxy)-naphthalen-2-ylmethyl]-4-ethyl-piperidine-4-carboxylic acid] | + to ++++ | 
3 | > 5.00 | CC(C)C1CCC(Oc2ccc3cc(CN4CCC(C(=O)O)CC4)ccc3c2)CC1 (centres unmarked) [Example 24, 1-((6-(4-Isopropylcyclohexyloxy)naphthalen-2-yl)methyl)piperidine-4-carboxylic acid] |  | 
4 | > 5.00 | CC(C)(C)[C@H]1CC[C@@H](Oc2ccc3cc(CN4CCC(C(=O)O)CC4)ccc3c2)CC1 [Example 26, 1-((6-(cis-4-tert-Butylcyclohexyloxy)naphthalen-2-yl)methyl)piperidine-4-carboxylic acid] |  | + to ++++
5 |  | CC[C@H]1CC[C@H](Oc2ccc3cc(CN4CCC(C(=O)O)CC4)ccc3c2)CC1 [Example 38, 1-((6-(trans-4-Ethylcyclohexyloxy)naphthalen-2-yl)methyl)piperidine-4-carboxylic acid] |  | + to ++++
6 |  | O=C(O)C1CCN(Cc2ccc3cc(OC4CCC5(CCC5)CC4)ccc3c2)CC1 [Example 87, 1-((6-(spiro[3.5]nonan-7-yloxy)naphthalen-2-yl)methyl)piperidine-4-carboxylic acid] |  | + to ++++
7 | > 5.00 | CC(C)(C)[C@H]1CC[C@H](Oc2ccc3cc(CN4CCCC(C(=O)O)CC4)ccc3c2)CC1 (some centres unmarked) [Example 60, 1-[6-(4-tert-Butyl-cyclohexyloxy)-naphthalen-2-ylmethyl]-perhydro-azepine-4-carboxylic acid] | + to ++++ | 
8 | > 5.00 | CC(C)(C)[C@H]1CC[C@H](Oc2ccc3nc(CN4CCC(C(=O)O)CC4)ccc3c2)CC1 [Example 42, 1-((6-(trans-4-tert-Butylcyclohexyloxy)quinolin-2-yl)methyl)piperidine-4-carboxylic acid] | + to ++++ | + to ++++
9 | > 5.00 | CCCCC1CCC(Oc2ccc3cc(CN4CCC(C(=O)O)CC4)ccc3c2)CC1 (mixture of isomers) [Example 32, 1-((6-(4-Butylcyclohexyloxy)naphthalen-2-yl)methyl)piperidine-4-carboxylic acid] | + to ++++ | + to ++++
10 |  | CC(C)(C)[C@H]1CC[C@H](Oc2ccc3cc(CN4CCC(CC(=O)O)CC4)ccc3c2)CC1 [Example 62, {1-[6-(4-tert-Butyl-cyclohexyloxy)-naphthalen-2-ylmethyl]-piperidin-4-yl}-acetic acid] | + to ++++ | + to ++++
11 |  | CC(C)(C)[C@H]1CC[C@H](Oc2ccc3cc(CN4CCC(C(=O)O)CC4)ccc3n2)CC1 [Example 55, 1-((2-(trans-4-tert-Butylcyclohexyloxy)quinolin-6-yl)methyl)piperidine-4-carboxylic acid] | + to ++++ | 
12 | > 5.00 | CCC1CCC(Oc2ccc3cc(CN4CCC(C(=O)O)CC4)ccc3c2)CC1 (centres unmarked) [Example 30, 1-((6-(4-Ethylcyclohexyloxy)naphthalen-2-yl)methyl)piperidine-4-carboxylic acid] | + to ++++ | + to ++++
13 |  | CC(C)(C)C1CCC(=Cc2ccc3cc(CN4CCC(C(=O)O)CC4)ccc3c2)CC1 (centres unmarked) [Example 52, 1-((6-((4-tert-Butylcyclohexylidene)methyl)naphthalen-2-yl)methyl)piperidine-4-carboxylic acid] |  | + to ++++
14 |  | CC(C)(C)[C@H]1CC[C@H](Oc2ccc3nc(CN4CCC(C(=O)O)CC4)ncc3c2)CC1 [Example 15, 1-((6-(trans-4-tert-Butylcyclohexyloxy)quinazolin-2-yl)methyl)piperidine-4-carboxylic acid] | + to ++++ | 
15 | > 5.00 | CC(C)(C)[C@H]1CC[C@H](Oc2ccc3cc(C(N4CCC(C(=O)O)CC4)C(F)(F)F)ccc3c2)CC1 (stereo partly drawn) [Example 22, 1-(1-(6-(trans-4-tert-Butylcyclohexyloxy)naphthalen-2-yl)-2,2,2-trifluoroethyl)piperidine-4-carboxylic acid] | + to ++++ | + to ++++
16 |  | O=C(O)C1CCN(Cc2ccc3cc(OC4CCC5(CCCCC5)CC4)ccc3c2)CC1 [Example 85, 1-((6-(spiro[5.5]undecan-3-yloxy)naphthalen-2-yl)methyl)piperidine-4-carboxylic acid] | + to ++++ | + to ++++
17 |  | CC(C)(C)[C@H]1CC[C@H](Oc2ccc3cc(C(=O)N4CCC(C(=O)O)CC4)ccc3c2)CC1 [Example 48, 1-(6-(trans-4-tert-Butylcyclohexyloxy)-2-naphthoyl)piperidine-4-carboxylic acid] | + to ++++ | + to ++++
18 |  | CC(C)(C)[C@H]1CC[C@H](Oc2ccc3cc(CN4CCCCC4C(=O)O)ccc3c2)CC1 (some centres unmarked) [Example 88, 1-[6-(4-tert-Butyl-cyclohexyloxy)-naphthalen-2-ylmethyl]-piperidine-2-carboxylic acid] | + to ++++ | 
19 |  | CCCC1(C(=O)O)CCN(Cc2ccc3cc(O[C@H]4CC[C@H](C(C)(C)C)CC4)ccc3c2)CC1 [Example 57, 1-[6-(4-tert-Butyl-cyclohexyloxy)-naphthalen-2-ylmethyl]-4-propyl-piperidine-4-carboxylic acid] | + to ++++ | + to ++++
20 | > 5.00 | CC(C)(C)[C@H]1CC[C@H](Oc2ccc3cc(CN4CCC(O)(C(=O)O)CC4)ccc3c2)CC1 [Example 61, 1-[6-(4-tert-Butyl-cyclohexyloxy)-naphthalen-2-ylmethyl]-4-hydroxy-piperidine-4-carboxylic acid] | + to ++++ | + to ++++
21 | > 5.00 | CC1CN(Cc2ccc3cc(O[C@H]4CC[C@H](C(C)(C)C)CC4)ccc3c2)CCC1C(=O)O (some centres unmarked) [Example 58, 1-[6-(4-tert-Butyl-cyclohexyloxy)-naphthalen-2-ylmethyl]-3-methyl-piperidine-4-carboxylic acid] | + to ++++ | + to ++++
22 |  | O=C(O)C1CCN(Cc2ccc3cc(OC4CCCCCC4)ccc3c2)CC1 [Example 81, 1-((6-(cycloheptyloxy)naphthalen-2-yl)methyl)piperidine-4-carboxylic acid] |  | + to ++++
23 |  | O=C(O)C1CCN(Cc2ccc3cc(OC4CCOCC4)ccc3c2)CC1 [Example 83, 1-((6-(tetrahydro-2H-pyran-4-yloxy)naphthalen-2-yl)methyl)piperidine-4-carboxylic acid] | + to ++++ | + to ++++
24 |  | O=C(O)C1CCN(Cc2ccc3cc(OC4CCC5(CCCC5)CC4)ccc3c2)CC1 [Example 34, 1-((6-(Spiro[4.5]decan-8-yloxy)naphthalen-2-yl)methyl)piperidine-4-carboxylic acid] |  | + to ++++
25 |  | CC(C)(C)[C@H]1CC[C@H](Oc2ccc3cc(CN4CCC(C(=O)O)(c5ccccc5)CC4)ccc3c2)CC1 [Example 59, 1-[6-(4-tert-Butyl-cyclohexyloxy)-naphthalen-2-ylmethyl]-4-phenyl-piperidine-4-carboxylic acid] | + to ++++ | 
26 |  | CC(C)(C)[C@H]1CC[C@H](Oc2ccc3cc(CN4CCC(C(=O)O)CC4)ncc3c2)CC1 [Example 75, 1-[7-(trans-4-tert-Butyl-cyclohexyloxy)-isoquinolin-3-ylmethyl]-piperidine-4-carboxylic acid] | + to ++++ | + to ++++
27 |  | CC[C@H]1CC[C@@H](Oc2ccc3cc(CN4CCC(C(=O)O)CC4)ccc3c2)CC1 [Example 36, 1-((6-(cis-4-Ethylcyclohexyloxy)naphthalen-2-yl)methyl)piperidine-4-carboxylic acid] | + to ++++ | + to ++++
